Test results from ChEMBL document CHEMBL3046162, “Design, synthesis and evaluation of aminobenzophenone derivatives containing nitrogen mustard moiety as potential central nervous system antitumor agent” (Med Chem Res, 2013).
In brackets after ≈: the same amount, converted by molar mass.

How the values were obtained:
[1] = tested on: IMR-32; test: Cytotoxicity against human IMR32 cells after 72 hrs by MTT assay; assay type: functional, cell-based; conditions: IMR-32, 72 h
[2] = Cytotoxicity against human U87 cells after 72 hrs by MTT assay; assay type: functional, cell-based, U-87MG ATCC; conditions: U-87 MG
[3] = tested on: A549; test: Cytotoxicity against human A549 cells after 72 hrs by MTT assay; assay type: functional, cell-based; conditions: A549, 72 h
[4] = tested on: COLO 205; test: Cytotoxicity against human COLO205 cells after 72 hrs by MTT assay; assay type: functional, cell-based; conditions: COLO 205, 72 h
[5] = Alkylating activity of the compound in aqueous acetone solution assessed as half life of compound-NBP adduct formation after 30 mins by UV-Vis spectrophotometric analysis; assay type: physicochemical; conditions: buffer, 0.5 h

SMILES	IC50 [1]	IC50 [2]	IC50 [3]	IC50 [4]	t1/2 [5]
CC(=O)O[C@@]12CO[C@@H]1C[C@H](O)[C@@]1(C)C(=O)[C@H](O)C3=C(C)[C@@H](OC(=O)[C@H](O)[C@@H](NC(=O)OC(C)(C)C)c4ccccc4)C[C@@](O)([C@@H](OC(=O)c4ccccc4)[C@H]21)C3(C)C.O.O.O [DOCETAXEL]	23.7 µg/mL	20.7 µg/mL	27.3 µg/mL	30.7 µg/mL	
O=C(CN(CCCl)CCCl)Nc1ccc([N+](=O)[O-])cc1C(=O)c1ccccc1	33.2 µg/mL (≈ 78.2 µM)	29.5 µg/mL (≈ 69.4 µM)	64.8 µg/mL (≈ 153 µM)	32.9 µg/mL (≈ 77.5 µM)	11.8 min
O=C(O)CCCc1ccc(N(CCCl)CCCl)cc1 [CHLORAMBUCIL]	20.1 µg/mL (≈ 66 µM)	18.8 µg/mL (≈ 61.9 µM)	21.1 µg/mL (≈ 69.3 µM)	26.7 µg/mL (≈ 87.7 µM)	
O=C(CN(CCCl)CCCl)Nc1ccc([N+](=O)[O-])cc1C(=O)c1ccccc1Cl	31.4 µg/mL (≈ 68.4 µM)	43.7 µg/mL (≈ 95.4 µM)	64.8 µg/mL (≈ 141 µM)	33.4 µg/mL (≈ 72.8 µM)	9.5 min
O=C(CN(CCCl)CCCl)Nc1ccc([N+](=O)[O-])cc1C(=O)c1ccc(Cl)cc1	28.4 µg/mL (≈ 61.9 µM)	23.3 µg/mL (≈ 50.7 µM)	36.7 µg/mL (≈ 79.9 µM)	38.9 µg/mL (≈ 84.9 µM)	8.4 min
O=C(CN(CCCl)CCCl)Nc1ccc(Cl)cc1C(=O)c1ccccc1	29.4 µg/mL (≈ 71 µM)	29 µg/mL (≈ 70.1 µM)	37.1 µg/mL (≈ 89.7 µM)	52.3 µg/mL (≈ 126 µM)	13.3 min
O=C(CN(CCCl)CCCl)Nc1ccc(Cl)cc1C(=O)c1ccc(Cl)cc1	31.1 µg/mL (≈ 69.5 µM)	27.1 µg/mL (≈ 60.5 µM)	37.3 µg/mL (≈ 83.3 µM)	28.7 µg/mL (≈ 64 µM)	8.9 min
O=C(CN(CCCl)CCCl)Nc1ccc(Cl)cc1C(=O)c1ccccc1Cl	30.8 µg/mL (≈ 68.8 µM)	24.5 µg/mL (≈ 54.7 µM)	34.6 µg/mL (≈ 77.3 µM)	32.6 µg/mL (≈ 72.7 µM)	10.3 min
